{
  "source": "paper PMC2761990",
  "about": "(Molecular cancer therapeutics, 2009)",
  "key": {"U87 cells [1]": {"tested_on": "U87 cells", "experiment": "Radiosurvival, Trypan blue/FACS assay, U87", "format": "cell-based, human", "conditions": "U87, 3 μM, 4 Gy, alone"}, "U1242 cells [2]": {"tested_on": "U1242 cells", "experiment": "Radiosurvival, Trypan blue/FACS assay, U1242", "format": "cell-based, human"}, "AKT T308 phosphorylation": {"tested_on": "AKT T308 phosphorylation", "experiment": "Radiation-induced AKT T308 phosphorylation", "format": "cell-based", "conditions": "Fig. S1B"}, "[3]": {"tested_on": "panel of 60 protein kinases", "conditions": "cited from earlier work"}, "γ-H2AX (S139)": {"tested_on": "γ-H2AX (S139)", "experiment": "IR-induced H2AX", "format": "cell-based, human", "conditions": "for γ-H2AX levels: 10 Gy"}, "[4]": {"tested_on": "p53 (S15) phosphorylation", "experiment": "IR-induced p53", "format": "cell-based, human", "conditions": "for inhibition of IR-induced p53 (S15) phosphorylation: 1 h after IR"}, "[5]": {"tested_on": "(S136) BAD phosphorylation", "format": "cell-based", "conditions": "in vivo and in vitro (Fig. S1C, D)"}, "[6]": {"tested_on": "(S9) GSK3β phosphorylation", "format": "cell-based", "conditions": "in vivo and in vitro (Fig. S1C, D)"}, "U1242 cells [7]": {"tested_on": "U1242 cells", "experiment": "Invasion through matrigel inserts, U1242", "format": "cell-based", "conditions": "Homo sapiens, 48 h, read-out: inhibition of invasion"}, "p53 phosphorylation": {"tested_on": "p53 phosphorylation", "experiment": "IR-induced p53 phosphorylation, western blot, U1242 cells", "format": "cell-based, human", "conditions": "U1242, 3 μM, 5 Gy"}, "[8]": {"tested_on": "h-TERT-immortalized normal fibroblasts", "experiment": "Radiosurvival, Trypan blue/FACS assay, normal fibroblasts", "format": "cell-based, human", "conditions": "10 μM, 7 days post-IR"}, "[9]": {"tested_on": "AKT (S473) phosphorylation", "experiment": "Insulin-stimulated AKT phosphorylation, A-T fibroblasts", "format": "cell-based, human", "conditions": "A-T cells, in response to insulin"}, "U87 cells [10]": {"tested_on": "U87 cells", "experiment": "Migration assay through 8 μm pore membranes, U87", "format": "cell-based", "conditions": "Homo sapiens, U-87 MG, 6 h, read-out: inhibition of migration"}, "[11]": {"tested_on": "AKT (S473) phosphorylation", "experiment": "AKT", "format": "cell-based, human", "conditions": "U1242, 3 μM, 5 Gy"}, "[12]": {"tested_on": "CHK2 phosphorylation (T68)", "experiment": "IR-induced CHK2", "format": "cell-based, human", "conditions": "U1242, 3 μM, 5 Gy, up to 1 h after irradiation"}, "[13]": {"tested_on": "AKT (S473) phosphorylation", "experiment": "Insulin-stimulated AKT phosphorylation, normal fibroblasts", "format": "cell-based, human", "conditions": "NFs"}, "U1242 cells [14]": {"tested_on": "U1242 cells", "experiment": "Scratch", "format": "cell-based, human"}, "PI3K (p110δ/p85α)": {"biological_target": "PI3K (p110δ/p85α) (Homo sapiens, UniProt O00329)", "sequence (O00329 whole entry)": "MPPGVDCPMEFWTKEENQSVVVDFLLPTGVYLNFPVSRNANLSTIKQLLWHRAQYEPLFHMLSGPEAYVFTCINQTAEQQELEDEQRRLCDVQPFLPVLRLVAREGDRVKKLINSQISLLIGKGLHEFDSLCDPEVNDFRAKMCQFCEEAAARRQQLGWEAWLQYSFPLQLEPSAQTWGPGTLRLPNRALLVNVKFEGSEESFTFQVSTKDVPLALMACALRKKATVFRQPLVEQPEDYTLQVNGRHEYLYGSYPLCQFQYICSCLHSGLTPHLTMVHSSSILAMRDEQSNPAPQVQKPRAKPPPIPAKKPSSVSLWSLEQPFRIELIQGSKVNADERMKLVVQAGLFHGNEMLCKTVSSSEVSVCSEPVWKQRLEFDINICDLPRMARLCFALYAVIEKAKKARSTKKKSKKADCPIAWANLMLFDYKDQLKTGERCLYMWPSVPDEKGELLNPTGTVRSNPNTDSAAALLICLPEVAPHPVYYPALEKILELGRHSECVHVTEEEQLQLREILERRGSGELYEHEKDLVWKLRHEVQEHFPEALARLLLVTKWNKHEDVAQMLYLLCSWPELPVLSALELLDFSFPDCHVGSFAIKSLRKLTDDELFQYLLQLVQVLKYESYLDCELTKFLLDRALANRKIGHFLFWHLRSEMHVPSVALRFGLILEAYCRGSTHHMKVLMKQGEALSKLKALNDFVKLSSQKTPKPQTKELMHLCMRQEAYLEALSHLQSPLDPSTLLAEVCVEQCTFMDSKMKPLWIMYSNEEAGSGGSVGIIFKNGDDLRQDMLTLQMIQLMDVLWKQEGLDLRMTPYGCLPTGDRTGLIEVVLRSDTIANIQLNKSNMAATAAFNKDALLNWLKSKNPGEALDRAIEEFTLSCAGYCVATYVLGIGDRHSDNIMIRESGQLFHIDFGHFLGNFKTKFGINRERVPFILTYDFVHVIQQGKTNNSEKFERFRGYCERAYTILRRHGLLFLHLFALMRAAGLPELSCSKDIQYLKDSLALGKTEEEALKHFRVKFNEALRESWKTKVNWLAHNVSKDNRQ", "sequence (P27986 whole entry partner)": "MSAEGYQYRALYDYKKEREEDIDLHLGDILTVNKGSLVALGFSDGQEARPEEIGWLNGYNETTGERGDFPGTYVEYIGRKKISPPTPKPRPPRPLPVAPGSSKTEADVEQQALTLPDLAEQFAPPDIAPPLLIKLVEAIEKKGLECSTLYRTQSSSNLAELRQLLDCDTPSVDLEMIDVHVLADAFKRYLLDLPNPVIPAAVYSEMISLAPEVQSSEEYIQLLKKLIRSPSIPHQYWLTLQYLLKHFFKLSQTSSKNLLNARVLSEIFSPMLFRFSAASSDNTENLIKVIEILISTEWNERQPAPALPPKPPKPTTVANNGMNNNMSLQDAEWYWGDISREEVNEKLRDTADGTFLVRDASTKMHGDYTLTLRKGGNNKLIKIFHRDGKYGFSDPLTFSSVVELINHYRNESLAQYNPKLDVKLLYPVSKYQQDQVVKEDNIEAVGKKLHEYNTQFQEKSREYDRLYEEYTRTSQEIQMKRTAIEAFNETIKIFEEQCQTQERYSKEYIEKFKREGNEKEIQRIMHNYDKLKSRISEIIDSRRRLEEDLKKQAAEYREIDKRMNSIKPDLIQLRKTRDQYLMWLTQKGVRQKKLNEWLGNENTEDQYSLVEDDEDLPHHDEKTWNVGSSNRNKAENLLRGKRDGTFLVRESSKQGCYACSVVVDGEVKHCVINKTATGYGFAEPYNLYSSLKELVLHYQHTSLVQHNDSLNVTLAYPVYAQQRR", "experiment": "PI3-Kinase HTRF assay", "format": "biochemical", "conditions": "read-out: PI3K (p110δ/p85α) inhibited"}, "[15]": {"tested_on": "AKT (S473) phosphorylation", "experiment": "AKT", "format": "cell-based, human"}, "[16]": {"tested_on": "h-TERT-immortalized A-T fibroblasts", "experiment": "Radiosurvival, Trypan blue/FACS assay, A-T fibroblasts", "format": "cell-based, human", "conditions": "10 μM, 7 days post-IR"}, "PI3K (p110β/p85α)": {"biological_target": "PI3K (p110β/p85α) (Homo sapiens, UniProt P42338)", "sequence (P42338 whole entry)": "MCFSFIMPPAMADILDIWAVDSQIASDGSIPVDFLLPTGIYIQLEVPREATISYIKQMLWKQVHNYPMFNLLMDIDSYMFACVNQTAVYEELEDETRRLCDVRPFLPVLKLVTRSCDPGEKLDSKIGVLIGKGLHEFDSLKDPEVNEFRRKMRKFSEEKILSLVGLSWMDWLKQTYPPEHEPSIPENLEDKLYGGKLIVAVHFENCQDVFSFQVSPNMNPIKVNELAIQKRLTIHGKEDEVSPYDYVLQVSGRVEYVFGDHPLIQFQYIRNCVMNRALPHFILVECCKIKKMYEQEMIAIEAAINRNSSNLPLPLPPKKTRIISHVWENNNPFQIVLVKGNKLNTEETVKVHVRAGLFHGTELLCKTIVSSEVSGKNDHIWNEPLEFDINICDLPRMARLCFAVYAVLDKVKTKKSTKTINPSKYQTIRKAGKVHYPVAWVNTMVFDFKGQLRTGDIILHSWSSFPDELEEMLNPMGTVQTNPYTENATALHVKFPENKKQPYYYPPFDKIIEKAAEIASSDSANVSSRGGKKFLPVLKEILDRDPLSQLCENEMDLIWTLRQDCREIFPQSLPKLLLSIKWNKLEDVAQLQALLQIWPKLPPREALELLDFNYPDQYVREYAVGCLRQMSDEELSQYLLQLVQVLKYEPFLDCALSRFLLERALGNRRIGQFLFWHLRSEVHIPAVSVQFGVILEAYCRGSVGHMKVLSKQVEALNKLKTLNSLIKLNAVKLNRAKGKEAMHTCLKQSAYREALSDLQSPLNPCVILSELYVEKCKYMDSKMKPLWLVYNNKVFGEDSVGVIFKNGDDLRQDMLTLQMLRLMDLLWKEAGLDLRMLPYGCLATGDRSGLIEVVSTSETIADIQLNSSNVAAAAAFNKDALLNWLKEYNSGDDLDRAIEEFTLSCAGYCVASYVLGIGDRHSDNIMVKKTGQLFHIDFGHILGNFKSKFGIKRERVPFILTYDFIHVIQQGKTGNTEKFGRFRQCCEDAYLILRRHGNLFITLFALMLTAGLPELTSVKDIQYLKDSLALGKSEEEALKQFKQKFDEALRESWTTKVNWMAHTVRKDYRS", "sequence (P27986 whole entry partner)": "as the sequence (P27986 whole entry partner) above", "experiment": "PI3-Kinase HTRF assay", "format": "biochemical", "conditions": "read-out: PI3K (p110β/p85α) inhibited"}, "[17]": {"tested_on": "panel of 229 protein kinases", "experiment": "Millipore KinaseProfiler panel", "format": "biochemical", "conditions": "1 μM; Table S1"}, "γ-H2AX": {"tested_on": "γ-H2AX", "experiment": "IR-induced γ-H2AX, western blot, U1242 cells", "format": "cell-based, human", "conditions": "U1242, 3 μM, 5 Gy, especially at times ≤15 min"}, "mTOR": {"biological_target": "mTOR (Homo sapiens, UniProt P42345)", "experiment": "Millipore KinaseProfiler, mTOR", "format": "biochemical", "conditions": "1 μM"}, "U1242 cells [18]": {"tested_on": "U1242 cells", "experiment": "Cell growth, AlamarBlue, U1242", "format": "cell-based, human", "conditions": "U1242, 3 μM, over a 5 day period"}, "PI3K (p120γ)": {"biological_target": "PI3K (p120γ) (Homo sapiens, UniProt P48736)", "sequence (P48736 whole entry)": "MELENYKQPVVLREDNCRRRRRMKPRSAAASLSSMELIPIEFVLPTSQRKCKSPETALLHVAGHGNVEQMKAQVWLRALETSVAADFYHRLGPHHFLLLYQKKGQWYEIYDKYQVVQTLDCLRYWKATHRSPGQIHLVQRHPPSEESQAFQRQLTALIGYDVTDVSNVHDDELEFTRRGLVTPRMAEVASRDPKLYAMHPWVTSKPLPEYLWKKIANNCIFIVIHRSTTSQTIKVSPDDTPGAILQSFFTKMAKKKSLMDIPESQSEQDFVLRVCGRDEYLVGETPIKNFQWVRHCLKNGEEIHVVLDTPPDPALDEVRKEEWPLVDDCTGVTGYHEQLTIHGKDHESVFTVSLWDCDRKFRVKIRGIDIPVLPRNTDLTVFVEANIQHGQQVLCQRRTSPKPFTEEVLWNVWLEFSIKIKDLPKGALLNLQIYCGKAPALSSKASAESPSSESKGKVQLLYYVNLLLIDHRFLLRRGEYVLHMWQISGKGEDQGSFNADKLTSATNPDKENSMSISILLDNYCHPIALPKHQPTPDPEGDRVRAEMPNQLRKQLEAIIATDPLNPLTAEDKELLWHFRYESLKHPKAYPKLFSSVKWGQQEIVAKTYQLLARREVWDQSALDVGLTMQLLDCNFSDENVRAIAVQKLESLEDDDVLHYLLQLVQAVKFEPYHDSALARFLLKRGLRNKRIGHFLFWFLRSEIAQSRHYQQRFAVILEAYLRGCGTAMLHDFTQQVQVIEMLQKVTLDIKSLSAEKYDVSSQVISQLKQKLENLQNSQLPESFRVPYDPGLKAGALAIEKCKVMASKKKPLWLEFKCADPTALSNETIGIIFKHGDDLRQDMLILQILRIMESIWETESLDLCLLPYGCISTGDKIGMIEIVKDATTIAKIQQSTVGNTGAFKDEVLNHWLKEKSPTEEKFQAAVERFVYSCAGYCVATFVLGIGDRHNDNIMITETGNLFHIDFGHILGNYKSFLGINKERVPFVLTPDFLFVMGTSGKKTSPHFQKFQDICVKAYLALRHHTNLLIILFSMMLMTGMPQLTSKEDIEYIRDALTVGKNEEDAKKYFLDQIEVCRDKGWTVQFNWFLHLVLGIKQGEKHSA", "experiment": "PI3-Kinase HTRF assay", "format": "biochemical", "conditions": "read-out: PI3K (p120γ) inhibited"}, "U87 cells [19]": {"tested_on": "U87 cells", "experiment": "Invasion through matrigel, U87", "format": "cell-based", "conditions": "Homo sapiens, U-87 MG, 48 h, read-out: inhibition of invasion through matrigel"}},
  "data": [
    {"smiles": "O=C(NOCC1CC1)c1ccc(F)c(F)c1Nc1ccc(I)cc1Cl", "note": "[PD184352, reference compound]", "values": [
      {"measurement": "effect on IR-induced killing", "setting": "U87 cells [1]", "value": "small but significant effect"},
      {"measurement": "effect on radiosurvival", "setting": "U1242 cells [2]; U1242, alone (Fig. S5)", "value": "slightly radioprotective"}
    ]},
    {"smiles": "O=c1cc(-c2cccc3c2Sc2ccccc2S3)oc(N2CCOCC2)c1", "note": "[KU-55933, reference compound]", "values": [
      {"measurement": "effect on radiation-induced AKT T308 phosphorylation", "setting": "AKT T308 phosphorylation", "value": "attenuated"},
      {"measurement": "specificity using a panel of 60 protein kinases", "setting": "[3]", "value": "highly specific for the ATM kinase"},
      {"measurement": "γ-H2AX levels", "setting": "γ-H2AX (S139); U87, 10 μM, 1 h after irradiation", "value": "only partly reduced"},
      {"measurement": "inhibition of IR-induced p53 (S15) phosphorylation", "setting": "[4]; U87, 3 μM, 10 Gy", "value": "not at 3 μM"},
      {"measurement": "inhibition of IR-induced p53 (S15) phosphorylation", "setting": "[4]; U87, 10 μM, 10 Gy", "value": "completely inhibited"},
      {"measurement": "effect on phosphorylation of (S136) BAD", "setting": "[5]", "value": "reduced"},
      {"measurement": "effect on phosphorylation of (S9) GSK3β", "setting": "[6]", "value": "reduced"}
    ]},
    {"smiles": "C[C@@H]1CN(CC(=O)Nc2ccc3c(c2)Cc2cccc(-c4cc(=O)cc(N5CCOCC5)o4)c2S3)C[C@H](C)O1", "note": "[KU-60019, 2-((2R, 6S)-2,6-Dimethyl-morpholin-4-yl)-N-[5-(6-morpholin-4-yl-4-oxo-4H-pyran-2-yl)-9H-thioxanthen-2-yl]-acetamide]", "values": [
      {"measurement": "inhibition at 3 µM", "setting": "U1242 cells [7]", "value": "~60", "unit": "%"},
      {"measurement": "inhibition of p53 phosphorylation", "setting": "p53 phosphorylation", "value": "completely inhibited"},
      {"measurement": "radiosensitization", "setting": "[8]", "value": "radiosensitized"},
      {"measurement": "γ-H2AX levels", "setting": "γ-H2AX (S139); U87, 3 μM, 15 min", "value": "reduced significantly"},
      {"measurement": "effect on H2AX phosphorylation", "setting": "γ-H2AX (S139); U87, 10 Gy, 1 h after irradiation", "value": "little to no effect"},
      {"measurement": "effect on S473 phosphorylation", "setting": "[9]", "value": "did not affect"},
      {"measurement": "inhibition at 10 µM", "setting": "U87 cells [10]", "value": "≥ 70", "unit": "%"},
      {"measurement": "effect on basal and radiation-induced AKT S473 phosphorylation", "setting": "[11]", "value": "almost completely abrogated"},
      {"measurement": "inhibition of radiation-induced CHK2 phosphorylation (T68)", "setting": "[12]", "value": "completely inhibited"},
      {"measurement": "inhibition of IR-induced p53 (S15) phosphorylation", "setting": "[4]; U87, 1 μM, 10 Gy", "value": "partial inhibited"},
      {"measurement": "p53 (S15) phosphorylation blocked", "setting": "[4]; U87, 1 μM, after IR", "value": "> 70", "unit": "%"},
      {"measurement": "inhibition of p53 phosphorylation", "setting": "[4]; U87, 3 μM, 10 Gy, 15 min post-IR", "value": "completely inhibited"},
      {"measurement": "inhibition of IR-induced p53 (S15) phosphorylation", "setting": "[4]; U87, 3 μM, 10 Gy", "value": "completely inhibited"},
      {"measurement": "reduction of AKT phosphorylation", "setting": "[13]", "value": "~ 45%"},
      {"measurement": "inhibition at 3 µM", "setting": "U1242 cells [14]; Homo sapiens, read-out: inhibition of migration (scratch assay)", "value": "≥ 50", "unit": "%"},
      {"measurement": "rate of gap closure slower than untreated", "setting": "U1242 cells [14]; U1242, 3 μM, at 10 h", "value": 50, "unit": "%"},
      {"measurement": "inhibition at 1 µM", "setting": "PI3K (p110δ/p85α)", "value": 27, "unit": "%"},
      {"measurement": "effect on radiation-induced increase in phospho-AKT (S473)", "setting": "[15]; U87, 3 μM, 5 Gy", "value": "almost completely blocked"},
      {"measurement": "earliest time of effect on S473 dephosphorylation after addition of drug", "setting": "[15]; U87, 3 μM, drug alone", "value": 5, "unit": "min"},
      {"measurement": "reduction in AKT phosphorylation", "setting": "[15]; U87, insulin-stimulated", "value": "~ 50%"},
      {"measurement": "reduction of basal AKT S473 phosphorylation", "setting": "[15]; pooled data from several independent experiments (Fig. S1A)", "value": 70, "unit": "%"},
      {"measurement": "radiosensitization", "setting": "[16]", "value": "not radiosensitized"},
      {"measurement": "effect on phosphorylation of (S136) BAD", "setting": "[5]", "value": "reduced"},
      {"measurement": "radiosensitization", "setting": "U1242 cells [2]; U1242, 3 μM, 4 days post-IR, level between that of U87 cells treated with 1 and 10 μM", "value": "radiosensitized"},
      {"measurement": "inhibition at 1 µM", "setting": "PI3K (p110β/p85α)", "value": 9, "unit": "%"},
      {"measurement": "non-specific target effects against a panel of 229 protein kinases", "setting": "[17]", "value": "little to no non-specific target effects"},
      {"measurement": "effect on phosphorylation of (S9) GSK3β", "setting": "[6]", "value": "reduced"},
      {"measurement": "inhibition of γ-H2AX", "setting": "γ-H2AX", "value": "partially inhibited"},
      {"measurement": "mTOR inhibition", "setting": "mTOR", "value": "not inhibited"},
      {"measurement": "suppression of growth", "setting": "U1242 cells [18]", "value": "~ 40%"},
      {"measurement": "inhibition at 1 µM", "setting": "PI3K (p120γ)", "value": 3, "unit": "%"},
      {"measurement": "inhibition at 3 µM", "setting": "U87 cells [19]", "value": "~60", "unit": "%"}
    ]},
    {"smiles": "C=C1[C@@H](O)[C@@H]2O[C@]3(CC[C@H](/C=C/[C@@H](C)[C@@H]4CC(C)=C[C@@]5(O[C@H](C[C@@](C)(O)C(=O)O)CC[C@H]5O)O4)O3)CC[C@H]2O[C@@H]1[C@@H](O)C[C@H](C)[C@H]1O[C@@]2(CCCCO2)CC[C@H]1C", "note": "[OA, okadaic acid, reference compound]", "values": [
      {"measurement": "increase of AKT S473 phosphorylation compared to untreated control", "setting": "[15]; U87, OA by itself", "value": "> 2", "unit": "fold"},
      {"measurement": "reduction of the effect of KU-60019 on S473 phosphorylation", "setting": "[15]; U87, ≥30 nM OA with KU-60019 3 μM, 1 h", "value": "> 50", "unit": "%"}
    ]}
  ]
}
